Assay results from a melting point compilation (Tetko et al.; mined from patent text by program, amines drawn as free bases though some values may be those of a salt).

Structure (SMILES) | melting point [°C]
Nc1cccc(-c2nc3n(n2)Cc2ccccc2-3)c1 | 163 to 164
CCOC(=O)c1c(CN(CC)CC)nc2cc(OC)c(OC)cc2c1-c1ccc(OC)cc1 | 118 to 119
CCc1cc2c(-c3ccccc3Cl)c([N+](=O)[O-])cnc2s1 | 72 to 73
COc1ccc(-c2nnc3c4ccccc4c(Nc4ccc(-c5nnn(C)n5)cc4)nn23)cc1 | 289 to 293
Cc1cc(Nc2nccc(-c3sc(N)nc3C)n2)ccc1N1CCCCC1 | 221 to 223
CCc1ccc(C(=O)O)c2ccccc12 | 125 to 127
COc1nc(OC)nc(OC(C(=O)O)C(C)(C)C)n1 (stereo not given) | 37 to 40
COc1cc2c(=O)c(C)cn3c4ccccc4c(c1)c23 | 165 to 168
O=[N+]([O-])c1ccc2[nH]cc(Cc3cccnc3)c2c1 | 154 to 156
COc1cc(CNC(=S)NC(COC(=O)C(C)(C)C)Cc2ccc(C(C)(C)C)cc2)ccc1O (stereo not given) | 117 to 119
CC(C)C(C)(C)C(=O)C(Cc1ccc(Cl)cc1)n1cncn1 (stereo not given) | 91 to 94
CCCCC(=O)Nc1ccccc1C(F)(F)F | 63
O=CN(O)C(CO)CS(=O)(=O)c1ccc(-c2ccc(OC(F)(F)F)cc2)cc1 (stereo not given) | 167 to 168
CCCCN(CCCC)CCNC(=O)c1cccc(NC(=O)N2CCc3cc(SC)c(C(F)(F)F)cc32)c1 | 128 to 130
COCCOc1ccc2c(c1)n(C1CCCCC1)c(=O)n2S(=O)(=O)c1ccc(C(=O)O)cc1OC | 105
CCOC1Nc2c(Br)cc(Br)cc2S(=O)(=O)N1 (stereo not given) | 96 to 98
CC(C)(C)NC(=O)Nc1nc2nc(S(C)(=O)=O)ncc2cc1-c1c(Cl)cccc1Cl | 138 to 140
Cc1oc(-c2ccco2)nc1COc1ccc(Cn2cc(CCC(=O)O)c(-c3ccc(F)cc3)n2)cc1 | 125 to 126
Cc1cc(-c2ccc(S(C)(=O)=O)cc2)n(-c2ccc(F)cc2)c1Cl | 151 to 154
COc1ccc(Cl)cc1[C@]1(F)C(=O)N(C(=O)NC(C)(C)C(=O)O)c2cc(C(F)(F)F)ccc21 | 57 to 60
Clc1ccn2cc(Cl)nc2c1 | 153 to 154
CCOC(=O)c1cc(OCN2C(=O)c3c(C(C)C)cc(OC)cc3S2(=O)=O)n(-c2ccccc2)n1 | 170 to 171
CC(C)(C)C(=O)c1ccc(C(=O)NC(=O)c2ccccc2)cc1 | 121 to 123
Cc1ccc(-c2cccc3c2CC(CNC(=O)OCc2ccccc2)O3)cc1 (stereo not given) | 134 to 136
COc1cc(Cl)c(N2CCN(c3cccc(C(F)(F)F)c3)CC2)c(Cl)c1 | 87 to 89

Structure (SMILES) | melting point [°C]
CCOC(=O)c1ncn(-c2nc(C)cs2)c1N | 152 to 155
CC(C)OC(=O)C(C(=O)O)=C1SCCS1 | 104 to 106
CNS(=O)(=O)c1ccc(NN=C2C(=O)Nc3ccc(C(N)=O)cc32)cc1 | > 250
Cc1c(S(=O)(=O)c2ccccc2)cc(C(C)(C)C)c(O)c1C(=O)Nc1ccc([N+](=O)[O-])cc1Cl | 202 to 204
Cc1cc(O)c2cc(C)c(-c3ccc(Cl)cc3Cl)n2n1 | 234 to 237
COc1cc(C=CC(=O)c2ccc(O)c(CC(=O)O)c2)cc(OC)c1OC | 210
CC(C(=O)c1ccccn1)c1ccc(C2CCCCC2)cc1 (stereo not given) | 80 to 81
OC(CNCC(O)C1CCc2ccccc2O1)C1CCc2ccccc2O1 (stereo not given) | 131
CC1(C)N=C(c2ccccc2F)c2cc([N+](=O)[O-])ccc2NC1=O | 241
O=[N+]([O-])c1ccc2c(c1)C(c1ccccc1F)=[N+]([O-])C(CCl)N2 (stereo not given) | 220 to 224
O=C(NCCN1CCCCC1)Nc1ccc(-c2nnc(CSCCOc3ccccc3)o2)cc1 | 126 to 128
Oc1ccc(Br)cc1CNc1cc(Cl)cc(Cl)c1 | 125 to 126
COC(=O)C1=CC2=CCC3C(CCC4(C)C(C(=O)c5ccc(O)cc5)CCC34)C2(C)CC1 (stereo not given) | 208 to 210
C=CC1(S(=O)(=O)CCS(=O)(=O)CC(O)CS(=O)(=O)CCCl)C=CC=CC1 (stereo not given) | > 200
CCOC(=O)c1c(Nc2ccc(Cl)cc2)n[nH]c1C | 223 to 225
O=C(NC1CCCc2ccccc21)c1ccc([N+](=O)[O-])cc1 (stereo not given) | 156 to 157
CC(C)Cn1c(=O)n(C)c(=O)c2cn(Cc3cccc4ccccc34)nc21 | 178
NCCCCn1cnc(-c2ccccc2)c1 | 130 to 132
CCCCOC(=O)C=Nc1cc(Cl)ccc1C(=O)O | 130
CCCCNc1ncc(C(=O)c2ccc(Cl)c([N+](=O)[O-])c2)s1 | 192 to 194
CCCCCCCCS(=O)(=O)NCCCCOc1ccc(-n2ccnc2)cc1 | 99 to 100
CCOCn1cnc2c1c(=O)n(C)c(=O)n2C | 110 to 112
CC(C)n1nc(-c2c(-c3ccccc3)oc(=O)n2C(C)C(=O)O)ccc1=O (stereo not given) | 173 to 175
C=CS(=O)(=O)C(C(=O)NC)S(=O)(=O)C=C | 143 to 147
COC1(c2cc(F)cc(Sc3ccc(C(=NO)C(F)(F)F)cc3)c2)CCOCC1 | 131 to 133

Structure (SMILES) | melting point [°C]
CCOC(=O)c1nnn(O)n1 | 75 to 78
COc1cccc(CCc2c(CCNC(=O)CCCCC(=O)O)ccc(OC)c2OC)c1 | 119 to 121
COc1cc2c(cc1OC(C)=O)CCC1C2CCC2(C)C1CCC21OCCO1 (stereo not given) | 166 to 167
O=C(O)c1cc(O)cc2ccccc12 | 210 to 212
COC(=O)c1sc(Cl)nc1C(F)(F)F | 32 to 34
CC(O)c1ccc2cc(OCc3ccccc3)ccc2c1 (stereo not given) | 97 to 98
CC(C)(C)OC(=O)C(N)c1ccc(C(=O)O)cc1[N+](=O)[O-] (stereo not given) | 124 to 126
Cn1nc(-c2ccccc2O)c2sccc21 | 112 to 113
Oc1c2c(nn1-c1ccc(F)cc1)CCc1cc(F)ccc1-2 | 220 to 221
CN(C)Cc1nc2n(n1)-c1cccnc1N(c1ccccc1)C2 | 135 to 139
CCc1ccc(N(Cc2ccc(N3CCOCC3)cc2)C(=O)C2CCCc3c(O)cccc32)cc1 (stereo not given) | 200
COC1=CC=C2C(=CCC(C)(c3ccc(OC)cc3)C2CCCCCCO)C1 (stereo not given) | 76 to 83
C/C(=C\c1ccc(C(=O)O)cc1)c1ccc2c(c1)C(C)(C)CCS2(=O)=O | 245 to 247
O=C(c1nc2ccccc2n1Cc1ccc(F)cc1)C1CCN(CCC2(Cc3ccc(C(F)(F)F)cc3)CCN(Cc3ccccc3)C2=O)CC1 (stereo not given) | 104 to 106
CNC(=O)Oc1ccc(S(C)(=O)=O)c2c1CCCC2 | 162 to 164
CCCCCCCCCCCCCCC(NC(C)=O)(C(=O)OCC)C(=O)OCC | 58.5 to 60.5
CCOc1cc(COc2cc(CCC(=O)O)n(-c3ccccc3)n2)cc(COc2ccc(Cl)cc2Cl)c1 | 152
CC(C)(C)N1CN(C(C)(C)C)C(N)=C2C=NN=C21 | 158 to 161
CC1C(=O)OC2=C(CSc3ccccc32)C1=O (stereo not given) | 275 to 277
CC[C@@H](c1ccccc1)N(Cc1ccc(CN)cc1)S(=O)(=O)c1ccc(Cl)cc1 | 108 to 110
COc1ccc(NC(=O)/C=C/c2ccc(N)c(F)c2)cc1N | 170 to 172
C=CCOc1ccc(S(=O)(=O)N2CCN(C)CC2)cc1-c1nc2c(CCC)nn(C)c2c(=O)[nH]1 | 151 to 153
COc1ccc(N2CCN(N)CC2)cc1 | 107
CCOC(=O)c1cnn2c(-c3ccccc3)ccnc12 | 129 to 130
O=C(Nc1ccc(CN2C(=O)[C@H]3CCC[C@H]3N(C(=O)CN3C(=O)c4ccccc4C3=O)c3ccccc32)cc1)c1ccc(Br)cc1 (relative stereo) | 175 to 180

Structure (SMILES) | melting point [°C]
CCc1cc(=O)n(CCC(C(=O)NO)N(C)S(=O)(=O)c2ccc(Oc3ccccc3)cc2)c(=O)[nH]1 (stereo not given) | 177 to 179
O=C(Nc1ccccc1)c1csc(Oc2cccc(Cl)c2)n1 | 94 to 95
COc1ccc(C2(C#Cc3cccc(-c4nnc(C)s4)c3)CCCC(=O)C2)cc1OC1CCCC1 (stereo not given) | 97 to 99
CC(C)CCCC(C)C1CCC2C3CC=C4CC(OCCI)CCC4(C)C3CCC12C (stereo not given) | 86 to 88
NCCCc1cn(C(c2ccccc2)(c2ccccc2)c2ccccc2)cn1 | 112 to 113
COc1nc(F)cc2nc(SCc3ccccc3)nn12 | 121 to 122
O=c1c(CO)csc2ccc3ccccc3c12 | 158 to 159
Cn1cc(-c2cccc(C(F)(F)F)c2)c(=O)c(-c2cccs2)c1 | 185 to 186
COc1ccc(/C=C/c2ccncc2)cc1OC1CCCC1 | 108
O=c1cc(N2CCOCC2)oc2ccc(Cl)cc12 | 194 to 195
CCCCCCN(Cc1ccc(-c2ccccc2-c2nnn[nH]2)cc1)c1ncc(C(=O)O)s1 | 113 to 117
CCOCc1nc2c(N)nc3ccccc3c2n1CC(=O)CC | 187 to 188
O=C(O)CCCc1c(Cl)cccc1-c1ccccc1 | 74 to 76
CC(=O)c1c([N+](=O)[O-])[nH]c(-c2ccncc2)c1C | 187 to 188
Nc1ncc(-c2cccc(Cl)c2Cl)c(N)n1 | 208 to 211
CCOC(=O)[C@H](Cc1ccc(O)cc1)NC(=O)c1c(F)cccc1F | 149 to 150
CCCCn1ccc(N2CCC(c3ccccc3)CC2)c(Cl)c1=O | 149
Clc1ccc(NCCCNCC2CCc3ccccc3O2)nn1 (stereo not given) | 108
CCCNC(=S)N1CCc2cc(S(=O)(=O)N3CC(c4ccccc4)NC3=O)ccc21 (stereo not given) | 222 to 224
O=C1[C@@H]2[C@H](O)CCN2C(=O)N1c1ccc(Br)c2ccccc12 (relative stereo) | 204 to 206
NC(=O)c1c(Cl)c(-c2ccccc2)n2c1CN(S(=O)(=O)c1ccncc1)CC2 | 202 to 204
Cc1ccccc1-c1ccc(C(=O)N2Cc3ccc(C(=O)NCc4cccnc4)n3Cc3ccccc32)cc1C | 147 to 149
O=C(O)c1ccc2c(c1)nc(-c1ccc(Oc3cccc(-c4cccc(Cl)c4)c3)cc1)n2C1CCCCC1 | 253 to 254
O=c1[nH]c(Nc2ccccc2)nc2c1ncn2CCO | 338 to 339
O=C(O)CN1CC(NC(=O)Cc2ccccc2)C1=O (stereo not given) | 144 to 145
